Measurements published in PMC5218480 (PLoS ONE, 2017).

System: MV-4-11 cells
Test: Gene expression microarray analysis (Affymetrix PrimeView) and GSEA
Assay type: cell-based, human
Design: RFU PODN (11730768_x_at) / Fold change /veh PODN (11730768_x_at) / RFU LINC00158 (11744669_a_at) / Fold change /veh LINC00158 (11744669_a_at) / RFU DUSP10 (11751237_a_at) / Fold change /veh DUSP10 (11751237_a_at) / RFU ID3 (11757404_x_at) / Fold change /veh ID3 (11757404_x_at) / RFU PLEKHG5 (11737974_s_at) / Fold change /veh PLEKHG5 (11737974_s_at) / RFU LRRC4B (11730491_at) / Fold change /veh LRRC4B (11730491_at) / RFU GIMAP4 (11747438_a_at) / Fold change /veh GIMAP4 (11747438_a_at) / RFU KRT8 (11758183_x_at) / Fold change /veh KRT8 (11758183_x_at) / RFU CNN1 (11734310_a_at) / Fold change /veh CNN1 (11734310_a_at) / RFU VPS37D (11726825_at) / Fold change /veh VPS37D (11726825_at) / RFU C10orf10 (11716522_x_at) / Fold change /veh C10orf10 (11716522_x_at) / RFU KIR2DL2 /// KIR2DL4 /// KIR2DL5A /// KIR2DL5B /// KIR2DS1 /// KIR2DS2 /// KIR2DS3 /// KIR2DS4 /// KIR3DL3 /// KIR3DL3 /// KIR3DS1 (11738374_at) / Fold change /veh KIR2DL2 /// KIR2DL4 /// KIR2DL5A /// KIR2DL5B /// KIR2DS1 /// KIR2DS2 /// KIR2DS3 /// KIR2DS4 /// KIR3DL3 /// KIR3DL3 /// KIR3DS1 (11738374_at) / RFU C1QL1 (11718748_at) / Fold change /veh C1QL1 (11718748_at) / RFU TMPRSS4 (11747572_a_at) / Fold change /veh TMPRSS4 (11747572_a_at) / RFU HAMP (11756126_x_at) / Fold change /veh HAMP (11756126_x_at) / RFU RNFT2 (11725882_a_at) / Fold change /veh RNFT2 (11725882_a_at) / RFU NR4A2 (11747474_a_at) / Fold change /veh NR4A2 (11747474_a_at) / RFU ABCC12 (11746883_a_at) / Fold change /veh ABCC12 (11746883_a_at) / RFU TMEM136 (11760407_x_at) / Fold change /veh TMEM136 (11760407_x_at) / RFU CLDN22 /// WWC2 (11732394_at) / Fold change /veh CLDN22 /// WWC2 (11732394_at) / RFU HLA-DPB1 (11760878_x_at) / Fold change /veh HLA-DPB1 (11760878_x_at) / RFU SPINT1 (11716480_a_at) / Fold change /veh SPINT1 (11716480_a_at) / RFU GAP43 (11754022_s_at) / Fold change /veh GAP43 (11754022_s_at) / RFU A4GNT (11735810_at) / Fold change /veh A4GNT (11735810_at) / RFU PRB3 (11715151_x_at) / Fold change /veh PRB3 (11715151_x_at) / RFU TUBB4B (11761932_at) / Fold change /veh TUBB4B (11761932_at) / RFU CAPN14 (11732068_a_at) / Fold change /veh CAPN14 (11732068_a_at) / RFU TMCC2 (11721928_a_at) / Fold change /veh TMCC2 (11721928_a_at) / RFU IRGQ (11745062_a_at) / Fold change /veh IRGQ (11745062_a_at) / RFU FAM174B (11720279_a_at) / Fold change /veh FAM174B (11720279_a_at) / RFU TMPRSS4 (11748680_a_at) / Fold change /veh TMPRSS4 (11748680_a_at) / RFU FAM212B (11763350_a_at) / Fold change /veh FAM212B (11763350_a_at) / RFU PLEKHG5 (11743358_a_at) / Fold change /veh PLEKHG5 (11743358_a_at) / RFU ZSCAN30 (11745921_a_at) / Fold change /veh ZSCAN30 (11745921_a_at) / RFU CMKLR1 (11741424_a_at) / Fold change /veh CMKLR1 (11741424_a_at) / RFU LOC101060620 /// MAPK8IP1 (11723275_at) / Fold change /veh LOC101060620 /// MAPK8IP1 (11723275_at) / RFU SPTSSB (11747773_x_at) / Fold change /veh SPTSSB (11747773_x_at) / RFU PRSS12 (11739890_at) / Fold change /veh PRSS12 (11739890_at) / RFU BIN1 (11741810_x_at) / Fold change /veh BIN1 (11741810_x_at) / RFU WNT11 (11732464_a_at) / Fold change /veh WNT11 (11732464_a_at) / RFU C10orf10 (11716521_a_at) / Fold change /veh C10orf10 (11716521_a_at) / RFU C5orf56 (11738089_at) / Fold change /veh C5orf56 (11738089_at) / RFU CYB561 (11721691_x_at) / Fold change /veh CYB561 (11721691_x_at) / RFU ANKRD19P (11752326_a_at) / Fold change /veh ANKRD19P (11752326_a_at) / RFU OR2T12 /// OR2T33 /// OR2T8 (11738714_s_at) / Fold change /veh OR2T12 /// OR2T33 /// OR2T8 (11738714_s_at) / RFU VCAN (11748164_a_at) / Fold change /veh VCAN (11748164_a_at) / RFU JSRP1 (11732532_at) / Fold change /veh JSRP1 (11732532_at) / RFU KRTAP10-11 (11738290_x_at) / Fold change /veh KRTAP10-11 (11738290_x_at) / RFU MYO3A (11730013_a_at) / Fold change /veh MYO3A (11730013_a_at) / RFU EBF3 (11725865_a_at) / Fold change /veh EBF3 (11725865_a_at) / RFU CAMK2N1 (11719241_x_at) / Fold change /veh CAMK2N1 (11719241_x_at) / RFU C5orf56 (11738088_a_at) / Fold change /veh C5orf56 (11738088_a_at) / RFU OLFML3 (11715873_a_at) / Fold change /veh OLFML3 (11715873_a_at) / RFU LOC100653217 /// NTM (11731650_a_at) / Fold change /veh LOC100653217 /// NTM (11731650_a_at) / RFU MAPK11 (11762145_a_at) / Fold change /veh MAPK11 (11762145_a_at) / RFU FIZ1 (11724087_x_at) / Fold change /veh FIZ1 (11724087_x_at) / RFU OASL (11726364_x_at) / Fold change /veh OASL (11726364_x_at) / RFU SOX15 (11748057_x_at) / Fold change /veh SOX15 (11748057_x_at) / RFU CD79A (11719716_a_at) / Fold change /veh CD79A (11719716_a_at) / RFU HIST1H1D (11736915_at) / Fold change /veh HIST1H1D (11736915_at) / RFU CASKIN2 (11723855_a_at) / Fold change /veh CASKIN2 (11723855_a_at) / RFU LOC730098 (11760151_x_at) / Fold change /veh LOC730098 (11760151_x_at) / RFU OR4N2 (11742367_at) / Fold change /veh OR4N2 (11742367_at) / RFU PRRT2 (11749266_a_at) / Fold change /veh PRRT2 (11749266_a_at) / RFU SNX32 (11753110_a_at) / Fold change /veh SNX32 (11753110_a_at) / RFU CDHR5 (11726645_a_at) / Fold change /veh CDHR5 (11726645_a_at) / RFU RCAN1 (11760418_a_at) / Fold change /veh RCAN1 (11760418_a_at) / RFU FAM167A (11723789_a_at) / Fold change /veh FAM167A (11723789_a_at) / RFU FAM26E (11764081_at) / Fold change /veh FAM26E (11764081_at) / RFU ISYNA1 (11749810_s_at) / Fold change /veh ISYNA1 (11749810_s_at) / RFU ACY1 (11761880_at) / Fold change /veh ACY1 (11761880_at) / RFU 11764098_at / Fold change /veh 11764098_at / RFU SAMD14 (11745864_x_at) / Fold change /veh SAMD14 (11745864_x_at) / RFU NPB (11741838_a_at) / Fold change /veh NPB (11741838_a_at) / RFU TMPRSS6 (11731388_a_at) / Fold change /veh TMPRSS6 (11731388_a_at) / RFU KRTAP10-2 (11738614_at) / Fold change /veh KRTAP10-2 (11738614_at) / RFU ARHGAP8 /// PRR5-ARHGAP8 (11727945_x_at) / Fold change /veh ARHGAP8 /// PRR5-ARHGAP8 (11727945_x_at) / RFU KRTAP5-7 /// NADSYN1 (11734609_at) / Fold change /veh KRTAP5-7 /// NADSYN1 (11734609_at) / RFU RASL12 (11751679_a_at) / Fold change /veh RASL12 (11751679_a_at) / RFU CDKN2B (11736163_a_at) / Fold change /veh CDKN2B (11736163_a_at) / RFU PRF1 (11729649_at) / Fold change /veh PRF1 (11729649_at) / RFU, ZNF638 /// ZNF638-IT1 / Fold change vs veh, ZNF638 /// ZNF638-IT1 / RFU, PANK3 / Fold change vs veh, PANK3 / RFU, SH3YL1 / Fold change vs veh, SH3YL1 / RFU, ZEB2 / Fold change vs veh, ZEB2 / RFU, NRIP1 / Fold change vs veh, NRIP1 / RFU, PTTG1IP / Fold change vs veh, PTTG1IP / RFU, CAPN2 / Fold change vs veh, CAPN2 / RFU, MED14 / Fold change vs veh, MED14 / RFU, SNORA58 / Fold change vs veh, SNORA58 / RFU, C1orf63 / Fold change vs veh, C1orf63 / RFU, LRRFIP1 / Fold change vs veh, LRRFIP1 / RFU, NDUFAF7 / Fold change vs veh, NDUFAF7 / RFU, SLC12A2 / Fold change vs veh, SLC12A2 / RFU, IBTK / Fold change vs veh, IBTK / RFU, ESF1 / Fold change vs veh, ESF1 / Fold change vs veh, TMEM50B / RFU, TAOK1 / Fold change vs veh, TAOK1 / RFU, ACBD3 / Fold change vs veh, ACBD3 / RFU, TMA16 / Fold change vs veh, TMA16 / RFU, RWDD3 / Fold change vs veh, RWDD3 / RFU, BCAT1 / Fold change vs veh, BCAT1 / RFU, EDEM3 / Fold change vs veh, EDEM3 / RFU, TMEM33 / Fold change vs veh, TMEM33 / RFU, WDR75 / Fold change vs veh, WDR75 / RFU, AHCTF1 / Fold change vs veh, AHCTF1 / RFU, TFRC / Fold change vs veh, TFRC / RFU, ZDHHC17 / Fold change vs veh, ZDHHC17 / RFU, NOM1 / Fold change vs veh, NOM1 / RFU, ARL8B / Fold change vs veh, ARL8B / RFU, ZBTB11 / Fold change vs veh, ZBTB11 / RFU, TAMM41 / Fold change vs veh, TAMM41 / RFU, KIAA1704 /// LOC100996395 / Fold change vs veh, KIAA1704 /// LOC100996395 / RFU, ING1 / Fold change vs veh, ING1 / RFU, TRMT61B / Fold change vs veh, TRMT61B / RFU, FUBP3 / Fold change vs veh, FUBP3 / RFU, TP53 / Fold change vs veh, TP53 / RFU, TNKS2 / Fold change vs veh, TNKS2 / RFU, ZFP14 / Fold change vs veh, ZFP14 / RFU, ACTR2 / Fold change vs veh, ACTR2 / RFU, PPP3R1 / Fold change vs veh, PPP3R1 / RFU, PIK3R1 / Fold change vs veh, PIK3R1 / RFU, HNRNPA1 / Fold change vs veh, HNRNPA1 / RFU, RNF170 / Fold change vs veh, RNF170 / RFU, ZNF28 / Fold change vs veh, ZNF28 / RFU, RNGTT / Fold change vs veh, RNGTT / RFU, OGT / Fold change vs veh, OGT / RFU, BRD1 / Fold change vs veh, BRD1 / RFU, MARS / Fold change vs veh, MARS / RFU, ZNF655 / Fold change vs veh, ZNF655 / RFU, FAHD1 / Fold change vs veh, FAHD1 / RFU, BDP1 / Fold change vs veh, BDP1 / RFU, LRRCC1 / Fold change vs veh, LRRCC1 / RFU, ARID1A / Fold change vs veh, ARID1A / RFU, ZNF146 / Fold change vs veh, ZNF146 / RFU, ZNF330 / Fold change vs veh, ZNF330 / RFU, GPN3 / Fold change vs veh, GPN3 / RFU, C9orf123 / Fold change vs veh, C9orf123 / RFU, N4BP2L2 / Fold change vs veh, N4BP2L2 / RFU, ARFIP1 / Fold change vs veh, ARFIP1 / RFU, FAM179B / Fold change vs veh, FAM179B / RFU, BCL10 / Fold change vs veh, BCL10 / RFU, UHRF1BP1L / Fold change vs veh, UHRF1BP1L / RFU, BET1 / Fold change vs veh, BET1 / RFU, CNOT2 / Fold change vs veh, CNOT2 / RFU, ZNF268 / Fold change vs veh, ZNF268 / Fold change vs veh, ZNF507 / RFU, DGCR2 / Fold change vs veh, DGCR2 / RFU, WDSUB1 / Fold change vs veh, WDSUB1 / Fold change vs veh, HSP90B1 /// MIR3652 / RFU, ADSS / Fold change vs veh, ADSS / RFU, GK / Fold change vs veh, GK / RFU, ZNF148 / Fold change vs veh, ZNF148 / RFU, TAF9 / Fold change vs veh, TAF9 / RFU, SLC1A5 / Fold change vs veh, SLC1A5 / RFU, SLMO2 / Fold change vs veh, SLMO2 / RFU, ABCC4 / Fold change vs veh, ABCC4 / RFU, LOC101060439 /// RAP1B / Fold change vs veh, LOC101060439 /// RAP1B / RFU, RFX7 / Fold change vs veh, RFX7 / RFU, GTPBP10 / Fold change vs veh, GTPBP10 / RFU, CNEP1R1 / Fold change vs veh, CNEP1R1 / RFU, BIVM-ERCC5 /// ERCC5 / Fold change vs veh, BIVM-ERCC5 /// ERCC5 / RFU, ILF3 / Fold change vs veh, ILF3 / RFU 11762660_at / Fold change /veh 11762660_at / RFU VCAN (11757783_s_at) / Fold change /veh VCAN (11757783_s_at) / RFU DDX43 (11728927_at) / Fold change /veh DDX43 (11728927_at) / RFU KRT8 (11758188_x_at) / Fold change /veh KRT8 (11758188_x_at) / RFU NKD1 (11759106_at) / Fold change /veh NKD1 (11759106_at) / RFU SRD5A1 (11742802_a_at) / Fold change /veh SRD5A1 (11742802_a_at) / RFU TPSAB1 /// TPSB2 (11721975_s_at) / Fold change /veh TPSAB1 /// TPSB2 (11721975_s_at) / RFU GSTM3 (11746129_a_at) / Fold change /veh GSTM3 (11746129_a_at) / RFU IL23R (11737362_x_at) / Fold change /veh IL23R (11737362_x_at) / RFU TMEM51 (11727254_a_at) / Fold change /veh TMEM51 (11727254_a_at) / RFU PIWIL2 (11732686_x_at) / Fold change /veh PIWIL2 (11732686_x_at) / RFU ORM1 (11744905_x_at) / Fold change /veh ORM1 (11744905_x_at) / RFU CCDC152 (11743942_at) / Fold change /veh CCDC152 (11743942_at) / RFU ECM1 (11717891_a_at) / Fold change /veh ECM1 (11717891_a_at) / RFU IL23R (11748794_a_at) / Fold change /veh IL23R (11748794_a_at) / RFU TNFAIP8L3 (11732012_x_at) / Fold change /veh TNFAIP8L3 (11732012_x_at) / RFU MBOAT4 (11741988_at) / Fold change /veh MBOAT4 (11741988_at) / RFU 11764193_at / Fold change /veh 11764193_at / RFU TMEM53 (11763286_at) / Fold change /veh TMEM53 (11763286_at) / RFU MAGEB2 (11727129_at) / Fold change /veh MAGEB2 (11727129_at) / RFU TMEM200A (11744735_a_at) / Fold change /veh TMEM200A (11744735_a_at) / RFU CCDC152 (11751479_a_at) / Fold change /veh CCDC152 (11751479_a_at) / RFU FAM211A (11726209_a_at) / Fold change /veh FAM211A (11726209_a_at) / RFU RGS16 (11746705_a_at) / Fold change /veh RGS16 (11746705_a_at) / RFU VCAN (11755009_s_at) / Fold change /veh VCAN (11755009_s_at) / RFU RHOB (11743442_s_at) / Fold change /veh RHOB (11743442_s_at) / RFU RGS16 (11720943_a_at) / Fold change /veh RGS16 (11720943_a_at) / RFU RGS16 (11720944_at) / Fold change /veh RGS16 (11720944_at) / RFU, VPS4B / Fold change vs veh, VPS4B / RFU, CREB1 / Fold change vs veh, CREB1 / RFU, DNAJC13 / Fold change vs veh, DNAJC13 / RFU, GNAQ / Fold change vs veh, GNAQ / RFU, CDK5R1 / Fold change vs veh, CDK5R1 / RFU, ZRANB3 / Fold change vs veh, ZRANB3 / RFU, CUL4A / Fold change vs veh, CUL4A / RFU, CCNY / Fold change vs veh, CCNY / RFU, UFL1 / Fold change vs veh, UFL1 / RFU, COG3 / Fold change vs veh, COG3 / RFU, DIAPH2 / Fold change vs veh, DIAPH2 / RFU, SKA2 / Fold change vs veh, SKA2 / RFU, AFF3 / Fold change vs veh, AFF3 / RFU, LMF1 / Fold change vs veh, LMF1 / RFU, IPO11 / Fold change vs veh, IPO11 / RFU, DFFB / Fold change vs veh, DFFB / RFU, FOXP1 / Fold change vs veh, FOXP1 / RFU, CARD8 / Fold change vs veh, CARD8 / RFU, STRN3 / Fold change vs veh, STRN3 / RFU, ADK / Fold change vs veh, ADK / RFU, RASSF2 / Fold change vs veh, RASSF2 / RFU, WIPF1 / Fold change vs veh, WIPF1 / RFU, LARP1B / Fold change vs veh, LARP1B / RFU, RASA1 / Fold change vs veh, RASA1 / RFU, RB1 / Fold change vs veh, RB1 / RFU, PPFIA1 / Fold change vs veh, PPFIA1 / RFU, MAT2A / Fold change vs veh, MAT2A / RFU, CCT5 / Fold change vs veh, CCT5 / RFU, WDR92 / Fold change vs veh, WDR92 / RFU, CUX1 / Fold change vs veh, CUX1 / RFU, TTC7A / Fold change vs veh, TTC7A / RFU, TMEM135 / Fold change vs veh, TMEM135 / RFU, DEPTOR / Fold change vs veh, DEPTOR / RFU, CPM / Fold change vs veh, CPM / RFU, DNAJB6 / Fold change vs veh, DNAJB6 / RFU, CACNA2D3 / Fold change vs veh, CACNA2D3 / RFU, DTX4 / Fold change vs veh, DTX4 / RFU, TFCP2 / Fold change vs veh, TFCP2 / RFU, GMCL1 /// GMCL1P1 / Fold change vs veh, GMCL1 /// GMCL1P1 / RFU, AEBP2 / Fold change vs veh, AEBP2 / RFU, SNHG1 /// SNORD22 /// SNORD25 /// SNORD26 /// SNORD27 /// SNORD28 /// SNORD29 /// SNORD31 / Fold change vs veh, SNHG1 /// SNORD22 /// SNORD25 /// SNORD26 /// SNORD27 /// SNORD28 /// SNORD29 /// SNORD31 / Fold change (Aza/veh), C12orf56 (ProbeSet 11735607_a_at) / Fold change (ACY-1035/veh), C12orf56 (ProbeSet 11735607_a_at) / Fold change (Aza/veh), FGFR1OP (ProbeSet 11751329_s_at) / Fold change (ACY-1035/veh), FGFR1OP (ProbeSet 11751329_s_at) / Fold change (Aza/veh), VPS36 (ProbeSet 11739960_a_at) / Fold change (ACY-1035/veh), VPS36 (ProbeSet 11739960_a_at) / RFU SYPL1 (11715823_x_at) / Fold change /veh SYPL1 (11715823_x_at) / RFU IGFBP7 (11715501_s_at) / Fold change /veh IGFBP7 (11715501_s_at) / RFU REEP3 (11722064_at) / Fold change /veh REEP3 (11722064_at) / RFU IGLL1 (11728026_x_at) / Fold change /veh IGLL1 (11728026_x_at): dose or concentration left out as unconfirmed
Details: MV-4-11 cells, 48 hours

## Nc1ccc(-c2cccs2)cc1NC(=O)c1ccc2c(c1)cc(C1CC1)n2CCN1CCOCC1 [ACY-1035]
  Fold change /veh ID3 (11757404_x_at): 1.00
